Measurements as given in the supplement of paper PMC10307832.

Key:
Experiment in all cases: relative viability (nuclei count vs DMSO), 5 days (fraction); higher = more cells survive
VX-11e + Navitoclax = compound: CC1=CN=C(N=C1C2=CNC(=C2)C(=O)N[C@H](CO)C3=CC(=CC=C3)Cl)NC4=C(C=C(C=C4)F)Cl [VX-11e] + CC1(C)CCC(c2ccc(Cl)cc2)=C(CN2CCN(c3ccc(C(=O)NS(=O)(=O)c4ccc(N[C@H](CCN5CCOCC5)CSc5ccccc5)c(S(=O)(=O)C(F)(F)F)c4)cc3)CC2)C1 [Navitoclax] (partner 0.5 µM)
In short: (§1)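 The day after seeding in 1536-well plates, lung cancer cell lines were treated by pin tool with a single drug, or with a fixed anchor-drug dose together with five library-drug doses (not always all listed) in √10 steps. After 5 days, a combined fix-and-stain solution (final 0.05% Triton X-100, 1% formaldehyde, 1 ug/ml Hoechst) was added. Nuclei counted on 4× images gave relative viability as treated counts over vehicle counts, reported as the median of duplicate plates.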

VX-11e + Linsitinib = compound: CC1=CN=C(N=C1C2=CNC(=C2)C(=O)N[C@H](CO)C3=CC(=CC=C3)Cl)NC4=C(C=C(C=C4)F)Cl [VX-11e] + C[C@]1(O)C[C@@H](c2nc(-c3ccc4ccc(-c5ccccc5)nc4c3)c3c(N)nccn32)C1 [Linsitinib] (partner 1 µM)
In short: as §1

VX-11e + Vorinostat = compound: CC1=CN=C(N=C1C2=CNC(=C2)C(=O)N[C@H](CO)C3=CC(=CC=C3)Cl)NC4=C(C=C(C=C4)F)Cl [VX-11e] + O=C(CCCCCCC(=O)Nc1ccccc1)NO [Vorinostat] (partner 1 µM)
In short: as §1

VX-11e + Alpelisib = compound: CC1=CN=C(N=C1C2=CNC(=C2)C(=O)N[C@H](CO)C3=CC(=CC=C3)Cl)NC4=C(C=C(C=C4)F)Cl [VX-11e] + Cc1nc(NC(=O)N2CCC[C@H]2C(N)=O)sc1-c1ccnc(C(C)(C)C(F)(F)F)c1 [Alpelisib] (partner 2 µM)
In short: as §1

Cell Line	relative viability (VX-11e + Navitoclax; first compound 0.04 µM)	relative viability (VX-11e + Navitoclax; first compound 0.1265 µM)	relative viability (VX-11e + Navitoclax; first compound 1.265 µM)	relative viability (VX-11e + Navitoclax; first compound 4 µM)	relative viability (VX-11e + Linsitinib; first compound 0.04 µM)	relative viability (VX-11e + Linsitinib; first compound 0.1265 µM)	relative viability (VX-11e + Linsitinib; first compound 1.265 µM)	relative viability (VX-11e + Linsitinib; first compound 4 µM)	relative viability (VX-11e + Vorinostat; first compound 0.04 µM)	relative viability (VX-11e + Vorinostat; first compound 0.1265 µM)	relative viability (VX-11e + Vorinostat; first compound 1.265 µM)	relative viability (VX-11e + Vorinostat; first compound 4 µM)	relative viability (VX-11e + Alpelisib; first compound 0.04 µM)	relative viability (VX-11e + Alpelisib; first compound 0.1265 µM)	relative viability (VX-11e + Alpelisib; first compound 1.265 µM)	relative viability (VX-11e + Alpelisib; first compound 4 µM)	relative viability (VX-11e + Navitoclax; first compound 0.4 µM)	relative viability (VX-11e + Linsitinib; first compound 0.4 µM)	relative viability (VX-11e + Alpelisib; first compound 0.4 µM)	relative viability (VX-11e + Vorinostat; first compound 0.4 µM)
LOU-NH91	0.751	0.692	0.593	0.581	0.919	0.952	0.946	0.733	0.889	0.79	0.626	0.781	0.692	0.689	0.691	0.538				
HCC-15	0.711	0.649	0.317	0.196	0.868	0.815	0.497	0.217	0.96	0.752	0.534	0.26	0.902	0.878	0.408	0.165	0.53	0.746	0.753	
HCC-827	1.07	1.02	1.24	0.919	0.967	0.934	1.12	0.859	0.924	0.846	0.918	0.761	1.02	1.06	1.16	0.599	0.992	0.975	0.983	1.03
NCI-H1703	1.12	1.21	1.29	0.744	0.294	0.655	0.748	0.502					0.303	0.401	0.444	0.294	1.24		0.303	
NCI-H322M	1.24		1.06	0.672	1.01		0.688	0.534	0.763	0.813	0.736	0.64	0.709		0.729	0.53	1.23	0.781	0.82	1.13
SK-LU-1	1.06	0.817	0.634	0.168	0.597	0.925	0.771	0.316	0.827	0.771	0.545	0.298	1.26	1.1	0.592	0.263	0.508	1.31	1.05	0.766
NCI-H2087	0.983	1	0.8	0.257	0.949	1.1	0.803	0.302	0.944	0.644	0.495	0.239	1.09	1.06	0.983	0.276	0.999	0.902	0.946	
201T	1.23	1.16	1.17	1.08	1.01	1.02	0.867	0.966	0.975	0.988	0.65	0.855	1.01	0.989	1.08	0.92	1.2	1	0.995	0.885
NCI-H1975	1.03	1.09	1.06	0.612	0.841	1.09	0.959	0.367	0.736	0.724	0.677	0.465	0.649	0.639	0.508	0.191	1.13	0.991	0.591	0.664
NCI-H2085	1.17	1.02	0.919	0.719	0.987	0.818	0.9	0.649	0.826	0.707	0.449	0.584	1.11	0.88	0.842	0.699	1.1	0.834	0.913	0.689
BEN	0.0581	0.0703	0.061	0.0537	1.04	0.701	0.54	0.783	0.572	0.564	0.525	0.504	1.14	0.906	0.612	0.806	0.0708	0.923	1.04	0.55
SW 1573	1.12	0.959	0.672	0.553	1.03	0.959	0.78	0.432		0.956	0.432	0.466	0.791	0.825	0.59	0.39	0.945	0.718	0.767	0.408
NCI-H1793		0.526	0.382	0.152		0.687	0.818	0.514		0.618	0.569	0.257		0.519	0.539	0.301				
RERF-LC-KJ	0.849	1.1	0.946	0.619	0.989	0.863	0.874	0.708	0.7	0.653	0.594	0.623	1.47	0.739	0.829	0.551	0.977	0.862		0.586
